TGI and GI50 data for 12 molecules are collected here from PubChem BioAssay (NCI).

Where “and” joins values, the source holds several entries; their conditions need not be identical. Identical values can stand only once.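 Method: 48-hour compound exposure of cells in 96-well plates, five concentrations, linear interpolation of endpoints. GI50: concentration for 50% inhibition of growth. The concentration for full growth arrest is given as TGI.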

Test systems include ACHN renal; MDA-N; NCI-H522 lung; NCI-H23 lung; NCI-H226 lung; SK-MEL-5 melanoma; M14 melanoma; IGROV1 ovarian; MDA-MB-231 breast; CAKI-1 renal.
Common to all, as to assay: NCI anticancer screen, dose series, 48 h

Consider `C=C(CCC(C(=O)O)C1CCC2(C)C3=C(CCC12C)C1(C)CCC(O)C(C)(C)C1CC3)C(C)C` (stereo not drawn), for which the TGI with ACHN renal was greater than 100 µM; with MDA-N, greater than 100 µM; in the assay on NCI-H522 lung, 50.3 µM; in the assay with NCI-H23 lung, greater than 100 µM; in the assay with NCI-H226 lung it was 96.3 µM; in the assay with SK-MEL-5 melanoma, greater than 100 µM. The TGI in the assay with M14 melanoma was greater than 100 µM; with IGROV1 ovarian, 63.1 µM; in the assay with MDA-MB-231 breast it was greater than 100 µM; in the assay on CAKI-1 renal, greater than 100 µM.
Take `CN1C(=O)[C@@]2(C=CC3(CC2)OCCO3)c2ccccc21`: the TGI with ACHN renal is greater than 50 µM; with MDA-N, greater than 50 µM; in the assay on NCI-H522 lung, greater than 32.4 µM; in the assay on NCI-H23 lung, greater than 50 µM; in the assay on NCI-H226 lung, greater than 50 µM; in the assay on SK-MEL-5 melanoma, greater than 50 µM. The TGI in the assay with M14 melanoma, in the assay with IGROV1 ovarian, in the assay on MDA-MB-231 breast and with CAKI-1 renal was greater than 50 µM each time.
As to `COc1ccc(C[C@H]2COC(=O)[C@@H]2Cc2cc(OC)c(OC)c(OC)c2)cc1OC`, the TGI in the assay on ACHN renal is greater than 100 µM; in the assay on MDA-N, greater than 100 µM; in the assay on NCI-H522 lung, greater than 100 µM; in the assay on NCI-H23 lung, greater than 100 µM; in the assay on NCI-H226 lung, greater than 100 µM; in the assay with SK-MEL-5 melanoma it was greater than 74.4 µM. Besides, the TGI in the assay on M14 melanoma, in the assay with IGROV1 ovarian, in the assay with MDA-MB-231 breast and in the assay with CAKI-1 renal was greater than 100 µM throughout.
For `C=CCN1C(=O)/C(=C/c2ccc(Cl)cc2)N=C1SC1OC(COC(C)=O)C(OC(C)=O)C(OC(C)=O)C1OC(C)=O` (stereo not drawn), the GI50 was 14.5 µM and 37.4 µM in the assay on ACHN renal; 9.63 µM and 21.9 µM in the assay on NCI-H226 lung; 7.84 µM and 23.6 µM with MDA-MB-231 breast. In addition, the TGI with ACHN renal is greater than 100 µM; with MDA-N, greater than 100 µM; with NCI-H522 lung, 17.8 µM and 42.9 µM; in the assay with NCI-H23 lung it was > 100 µM and 76.2 µM; in the assay with NCI-H226 lung it was 24.5 µM and 78 µM; in the assay on SK-MEL-5 melanoma, greater than 100 µM. In addition, the TGI is greater than 100 µM with M14 melanoma; greater than 100 µM in the assay on IGROV1 ovarian; 43.6 µM and 80.9 µM with MDA-MB-231 breast; 28.3 µM and > 100 µM in the assay with CAKI-1 renal.
On to `Clc1ncc(C(Cl)(Cl)Cl)nc1-c1ccccc1`, for which the TGI with ACHN renal is 3.19 µM; in the assay on MDA-N, 3.82 µM; in the assay with NCI-H522 lung it was 6.72 µM; in the assay with NCI-H23 lung, 6.07 µM; with NCI-H226 lung it was 39.4 µM; in the assay on SK-MEL-5 melanoma, 26.4 µM. Also, the TGI in the assay on M14 melanoma came out at 5.88 µM; in the assay on IGROV1 ovarian, 8.05 µM; with MDA-MB-231 breast, 3.86 µM; in the assay on CAKI-1 renal, 5.46 µM.
For the molecule `COC1(OC)/C(=C(\N)C=O)NC(C)(C)N1O`, the TGI in the assay with ACHN renal, in the assay with MDA-N, in the assay with NCI-H522 lung, with NCI-H23 lung, in the assay on NCI-H226 lung and in the assay with SK-MEL-5 melanoma was greater than 100 µM throughout. Further, the TGI in the assay with M14 melanoma, in the assay with IGROV1 ovarian, in the assay on MDA-MB-231 breast and in the assay on CAKI-1 renal was greater than 100 µM each time.
Consider `Cn1c(=O)c2[nH]c(N/N=C3/SCC(=O)N3Cc3ccccc3)nc2n(C)c1=O`, for which the TGI is greater than 100 µM in the assay on ACHN renal; 36.5 µM in the assay on MDA-N; greater than 100 µM with NCI-H522 lung; greater than 100 µM with NCI-H23 lung; greater than 100 µM with NCI-H226 lung; greater than 100 µM in the assay with SK-MEL-5 melanoma. Moreover, the TGI with M14 melanoma, in the assay with IGROV1 ovarian, in the assay on MDA-MB-231 breast and in the assay with CAKI-1 renal was greater than 100 µM each time.
In the case of `COc1cc(/C=C2\C[C@H]3[C@@H]4CC=C5C[C@@H](N6CCCC6)CC[C@]5(C)[C@H]4CC[C@]3(C)[C@H]2OC(C)=O)cc(OC)c1OC`, the TGI in the assay with ACHN renal came out at 32.9 µM; in the assay with MDA-N, 23.3 µM; in the assay with NCI-H522 lung it was 30.4 µM; with NCI-H23 lung, 28.5 µM; in the assay on NCI-H226 lung, 48.3 µM; in the assay on SK-MEL-5 melanoma, 28.4 µM. In addition, the TGI was found to be 31.9 µM in the assay with M14 melanoma, 29.9 µM in the assay with IGROV1 ovarian, 29.8 µM in the assay on MDA-MB-231 breast and 32.6 µM in the assay with CAKI-1 renal.
With `CN(C)CCNC(=O)c1cccc2c(NC(CS)C(=O)O)c3ccccc3nc12` (stereo not drawn), the TGI in the assay on ACHN renal was 59.8 µM; in the assay on MDA-N, 20 µM; with NCI-H522 lung it was 20.2 µM; in the assay on NCI-H23 lung, 30.4 µM; in the assay on NCI-H226 lung, 69.2 µM; in the assay on SK-MEL-5 melanoma it was 20 µM. The TGI with M14 melanoma was determined as 19.5 µM; with IGROV1 ovarian, 28 µM; in the assay on MDA-MB-231 breast, 23.6 µM; in the assay with CAKI-1 renal, 57.1 µM.
With `CCOc1cc(C=O)ccc1O`, the TGI in the assay on ACHN renal, in the assay on MDA-N, in the assay with NCI-H522 lung, with NCI-H23 lung, in the assay on NCI-H226 lung and with SK-MEL-5 melanoma was greater than 100 µM each time. The TGI in the assay with M14 melanoma, with IGROV1 ovarian, with MDA-MB-231 breast and in the assay on CAKI-1 renal was greater than 100 µM throughout.
With `COc1cc(C2S/C(=C/c3ccccc3)C(=O)N2c2ccc(Cl)cc2)cc(OC)c1OC` (stereo not drawn), the TGI in the assay on ACHN renal is greater than 100 µM; in the assay with MDA-N, 34.3 µM; in the assay on NCI-H522 lung, 21.2 µM; with NCI-H23 lung it was greater than 100 µM; with NCI-H226 lung it was greater than 100 µM; in the assay with SK-MEL-5 melanoma, greater than 100 µM. The TGI is greater than 46 µM in the assay with M14 melanoma, greater than 100 µM with IGROV1 ovarian, greater than 96.6 µM with MDA-MB-231 breast and greater than 100 µM in the assay with CAKI-1 renal.
In the case of `COc1ccc(S(=O)(=O)Nc2ccc(-c3csc(N4C(=O)/C(=C/C=C\c5ccccc5)N=C4c4ccccc4)n3)cc2)cc1Cl`, the TGI was greater than 100 µM in the assay with ACHN renal; 80.7 µM with MDA-N; 47.3 µM with NCI-H522 lung; 42.4 µM in the assay with NCI-H23 lung; greater than 100 µM with NCI-H226 lung; greater than 100 µM in the assay with SK-MEL-5 melanoma. The TGI in the assay with M14 melanoma is 83.6 µM; in the assay on IGROV1 ovarian, 56.5 µM; with MDA-MB-231 breast, 51.6 µM; in the assay with CAKI-1 renal it was greater than 100 µM.
